This experiment in a line: Blocker Index (BI), expert grader ranking of malodor strength of isovaleric acid swatch treated with test material. As for the experimental part:
Making Swatches Treated with the Test Material A clean swatch is treated with 13 μL of a known concentration of a test sample material resulting in an about 1 cm of the solution on the clean swatch. Just like the reference swatches, the test sample material swatch is dried in a vented hood for 30 minutes and then wrapped in aluminum foil to prevent contamination. The test material swatches and the FFI reference swatches should be made within 2 hrs of each other. The test material swatch must be used within 0.5 to 12 hours and discarded after 12 hours. Assigning the FFI to the Test Material At least two perfumers/expert graders are used to assign an FFI grade to a test sample. The perfumer/expert grader smells the test sample swatch by holding that swatch 1 inch from their nose with their nose centered over the area where the test sample was pipetted on to the fabric and then assigns the test sample an FFI grade using the FFI reference scale anchor swatches as references. In cases where the test sample material is graded greater than 3, the test material is not a blocker material or the concentration of the material needs to be lowered and reevaluated to determine if a lower level has a malodor blocker functionality. Method for Assigning the BI to Test Sample The first step in the method for assigning a BI to a test sample material on the BI reference scale is to create the BI reference swatches. […] Fabric swatches for this test are white knit polycotton (4 inch×4 inch) swatches from EMC ordered as PC 50/50. The supplier is instructed to strip the swatches first, stripping involves washing twice with a fragrance-free detergent and rinsing three times. […] The BI scale contains one clean swatch with no malodor applied. […] These solutions are pipetted to the middle of the swatches. […] After drying for 30 minutes in a vented hood, the swatches are wrapped in aluminum foil to prevent odor contamination to the treated swatch. A clean untreated swatch is also included as the lowest anchor point of reference for malodor strength on the BI scale. The BI reference scale swatches should be used within 0.5 to 12 hours and discarded after 12 hours. The swatches are used as scale anchor points when graders evaluate a test sample(s) and are assigned a Blocker Index (BI) as show in Table 12. […] The perfumer/expert grader is asked to rank order swatches according to a scale between 0 and 3.
The reference swatches represent the 0, 1, 2, and 3 BIs on the BI reference scale, Table 12. The expert grader should familiarizes him/herself with the strength of the odor on the BI reference swatches by sniffing each one starting at 0 (the lowest odor strength) and ending at 3 (the highest odor strength). This should be done prior to evaluating the swatch treated with the test material.
Making the Malodorous Swatch and Treating it with a Test Material To evaluate the BI, the test material is applied to a malodorous swatch to determine how well the test material blocks the malodor. […] After drying the malodorous swatch a known concentration of test material solution, between 1 ppm and 100 ppm is pipetted onto the malodorous swatch. […] It is sometimes necessary to evaluate several levels of the test material between about 1 and about 100 ppm to determine the BI. Assigning the BI to the Test Material At least two perfumers/expert graders are used to assign the BI to the test sample. […] The test sample swatch is assigned a BI at or between numbers on the BI in table.

[1] abbreviates: test material at 10 ppm on isovaleric acid swatch.
Setting [2] is: test material at 50 ppm on isovaleric acid swatch.
Where [3] appears, read: test material Conc 50 ppm on swatch with 20 μL 0.08% isovaleric acid, scale 0 to 3.
Setting [4] is: test material Conc 10 ppm on swatch with 20 μL 0.08% isovaleric acid, scale 0 to 3.

Turning to `CCC(=O)OC1CC2C3C=CCC3C1C2(C)C` (stereo not shown), the BI is reported as 1.5 under setting [1] and 2.2 under setting [2]. Take `CCOC(=O)OC1C(C)CCC(C)C1C` (stereo not shown) [Material 1005]: the BI under setting [3] came to 2.6. On to `CC1(C)CCc2ccc(CCC=O)cc21` [Material 261], for which the BI came out at 1.8 under setting [4] and 1.3 under setting [3]. Consider `CCCCCCCCCCCO` [Undecanol], for which the BI under setting [3] was 2.3. `CCCCCCCCCCCCO` [Material 174]: under setting [3], the BI is 2.3. For the compound `CC1(C)C2CCC3(C2)C1C(=O)CCC3(C)C` (stereo not shown) [Material 1149], the BI came out at 1.5 under setting [4] and 2.3 under setting [3]. With `COC(=O)OC1CC/C=C\CCC1` (stereo not shown) [Material 1139], the BI was 2.0 under setting [4] and 2.7 under setting [3]. In the case of `C=CC(C)=CCC=C(C)C` [Material 524], under setting [3], the BI is listed as 2.8.

As for `CC(C)(C)C1CCCCC1` [4-tert-butyl cyclohexane], the BI was determined as 2.0 under setting [4] and 2.0 under setting [3]. `CC1(C)CCc2ccc(CCC=O)cc21`: the BI was 1.5 under setting [1] and 2.7 under setting [2]. Regarding `CCCCCCCCCCCCCCCC(=O)OC` [Material 109], under setting [4], the BI is 2.0. In the case of `CC(=O)OC1CC2CC1C1CC=CC21` (stereo not shown) [Material 281], the BI stood at 2.0 under setting [4] and 2.0 under setting [3].

Consider `CC(=O)OCCCCCCC(C)C` [Material 204], for which the BI under setting [4] is 2.0 and the BI under setting [3] was found to be 2.7. `CCC(O)COC1CCCCC1C(C)(C)C` (stereo not shown) [Material 677]: the BI is, setting by setting: under setting [4], 2.3; under setting [3], 2.0. `O=C1CCC2CCCCC2O1` (stereo not shown) [3,4,4a,5,6,7,8,8a-octahydrochromen-2-one] showed a BI under setting [4] of 2.0 and a BI under setting [3] of 2.0. Consider `CC1CCC2(C(C)C)CC(C)OC2C1` (stereo not shown), for which the BI was 2.0 under setting [1] and 2.2 under setting [2].

Turning to `CC(CCO)CCc1ccccc1` (stereo not shown) [Material 962], the BI by setting is: under setting [4], 2.3; under setting [3], 1.7. The compound `CCCCCCCCCCCC(=O)OCC` [Material 391] yielded a BI under setting [3] of 2.2. `C=C1CCC2OC2(C)CCC2C1CC2(C)C` (stereo not shown) [Material 1148] returned a BI under setting [3] of 2.3.

(Values after patent US11334695B2, “Antiperspirant and deodorant compositions comprising malodor reduction compositions” (The Procter & Gamble Company, priority 2014, dated 2022).)
